The text below walks through data of patent publication US20240069044A1, “METHOD FOR DIAGNOSING A PREDISPOSITION OF A LIVING BEING TO DEVELOP THROMBOCYTOPENIA” (priority 2021, published 2024).

Series [1] has as its system platelets from healthy donors. In words: IgG binding to platelets by flow cytometry after incubation with VITT sera. In kind it is cell-based. A general note: A flow cytometer gives signals particle by particle.
The test system of series [2] is washed platelets from healthy donors. Description: Heparin induced platelet activation assay (HIPA) with modifications, VITT sera. The settings on record: for platelet activation by VITT sera in the presence of the additive: result in words. In kind it is cell-based. On the procedure: (§1) A commercially available IgG-Enzyme Immune Assay (EIA) was used in accordance to manufacturer's instructions (Hyphen Biomed, Neuville-sur-Oise, France). Per manufacturer's recommendations, a sample was considered reactive if the optical density (OD) was ≥0.500. The ability of sera to activate platelets was tested using the functional assay heparin induced platelet aggregation assay (HIPA) as previously described. In brief, serum was tested with washed platelets (wPLTs) from four different healthy donors in the absence (buffer alone) or in the presence of unfractionated heparin (0.2 IU/mL and 100 IU/mL, [Ratiopharm, Ulm, Germany]). Reactions were placed in microtiter wells containing spherical stir bars and stirred at approximately 500 revolutions per minute (rpm). Wells were examined optically at five-minutes (min) interval for loss of turbidity. A serum was considered reactive (positive) if a shift from turbidity to transparency occurred within 30 min in at least two platelet suspensions. Observation time was 45 min. Each test included a diluted serum from a patient with HIT as a weak positive control, collagen (5 μg/mL) as strong positive control and a serum from a healthy donor as a negative control.
To investigate the ability of patients sera to activate platelets, the HIPA assay was used with several modifications. Sera were incubated with washed platelets in the presence of I) buffer, II) 0.2 IU/mL LMWH, III) 100 IU/mL UFH, IV) an Fc gamma receptor IIa (FcγRIIA)-blocking monoclonal antibody (mAb IV.3), VI) 30 mg/mL IVIG, VII) 25 μg/mL PF4, VIII) 50 μg/mL Spike-RBD, IX) PF4/Spike-RBD complexes, X) PF4+RBD or XI) ChAdOx1 nCoV-19 (XII). Conditions with PF4 and RBD were also repeated in the presence of high concentration of heparin (100 IU/mL UFH). […] (FIG. 5B). […] Antibody-mediated platelet activation was inhibited when low molecular weight heparin (LMWH) was added at low concentrations by testing three sera.

The test system is the same in series [3]. Description: Antibody-mediated procoagulant platelets (CD62p/PS positive) by flow cytometry, VITT sera. In kind it is cell-based. The settings on record: for FI CD62p/PS positive PLTs: VITT sera with washed platelets, 0.2 IU/mL LMWH, high concentration UFH, mAb IV.3, high concentrations of IgG, PF4 or Spike-RBD, sera alone 22.94±6.14.
For series [4] the test system is unchanged. In words: Procoagulant platelets induced by HIT patient sera, washed platelets, flow cytometry. The format is cell-based. The settings on record: for generation of procoagulant platelets by patient sera in the presence of the additive: HIT, washed platelets (FIG. 8) or PRP (FIG. 9), 0.2 IU/mL LMWH, high concentration UFH, PF4, IV.3, result in words. On the procedure: Prior to usage, all sera were heat-inactivated at 56° C. for 30 min, followed by a sharp centrifugation step at 5,000 g. The supernatant was collected in a fresh tube. For determination of procoagulant platelets, 5 μL serum was incubated with 25 μL washed platelets ([…]) for 1 h under rotating conditions at RT. Where indicated, cell suspensions were preincubated with PF4 (10 μg/ml) and Heparin (0.2 or 100 IU/ml). Afterwards, samples were washed once (7 min, 650 g, RT, without brake) and gently resuspended in 75 μL of phosphate-buffered saline (PBS, Biochrom, Berlin, Germany). Platelets were then stained with Annexin V-FITC and CD62-APC (Immunotools, Friesoythe Germany) and directly analyzed by flow cytometry (FC). Test results were determined as fold increase of the percentage of double PS/CD62p positive events in platelets upon incubation with patients' sera compared to the baseline.
37.5 μl wPLTs/PRP were supplemented with 1 μl of 10 IUs heparin (final concentration 0.2 IUs) or 1 μl of 5000 IUs heparin (final concentration 100 IUs) and 5 μL serum/IgG from HIT patients or control serum/IgG. Samples were filled up with PBS to a final volume of 50 μl and incubated for 1 hour under rotating conditions at RT. Afterwards, 5 μl of the PLT suspension were transferred into a final volume of 100 μL of Hank's balanced salt solution (HBSS) containing 137 mM NaCl, 1.25 mM CaCl2), 5.5 mM glucose, [Carl-Roth, Karlsruhe, Germany]) and incubated with 1 μL anti-CD62p-APC (BD, San Jose, USA), 1 μL Annexin-FITC (Immunotools, Friesoythe, Germany) and 2 μL anti-CD42a-PerCP (BD, San Jose, USA) for 30 min at RT in the dark. PLTs that were treated with thrombin receptor activating peptide (TRAP-6, [10 μM, 30 min at RT]) and ionomycin [5 μM, 15 min at RT] (both Sigma-Aldrich, St. Louis, USA) served as positive controls. Afterwards, PLTs were resuspended with HBSS to a final volume of 500 μL and immediately assessed via flow cytometry ([FC]), Navios, Beckman-Coulter, Brea, USA).
To investigate the mechanisms of HIT antibody-induced changes on PLTs, […] wPLTs/PRP were pretreated with Fc-gamma-RIIA blocking monoclonal antibody (moAb) anti-CD32 (moAb IV.3; Stemcell™ technologies, Vancouver, Canada) or a monoclonal isotype control ([SC-2025] Santa Cruz Biotechnology, Dallas, USA) for 30 min at RT prior to HIT serum/IgG treatment.

The test system of series [5] is PRP from healthy individuals. Description: Procoagulant platelets in platelet rich plasma (PRP) with patient sera/HIT IgG, flow cytometry. The format is cell-based. The settings on record: for procoagulant PLT formation by HIT IgG fractions: PRP. Here is the method:
IgG fractions were isolated from HIT as well as from control sera by the use of a commercially available IgG-purification-kit (Melon™-Gel IgG Spin Purification Kit, Thermo Fisher Scientific, Waltham, USA) as recommended by the manufacturers. In brief, heat inactivated serum was diluted 1:10 in purification buffer and incubated with the kit specific Gel IgG Purification Support over four cycles for 10 min. Subsequently, periodically performed centrifugation steps through a 10 μm pore size filter tube were performed for 1 min at 5000×g. The flow throw was collected into 100 kDa pore sized centrifugal filters (Amicon Ultra-4, Merck Millipore, Cork, Ireland) with subsequent concentration to the initial volume of the used serum sample via centrifugation (10-15 min, 2000×g, 4° C., with brake). IgG concentrations were measured by excitation using a NanoDrop One at a wavelength of […] (VWR, Bruchsal, Germany).
For determination of procoagulant platelets in PRP, sera were prepared as described above. For PRP preparation, venous blood from healthy individuals was withdrawn into vacutainers containing sodium citrate 0.105 M (3.2%) (BD, Plymouth, UK) and allowed to rest for 20 min at RT. PRP was prepared by centrifugation (20 min, 120 g, RT) and adjusted with autologous platelet poor plasma (PPP, [10 min, 2000 g, RT]) to a PLT count of 300×10^6/ml. […] Afterwards, samples were processed as described for washed PLTs and analysed by flow cytometry (FC). Test results were determined as fold increase of the percentage of double PS/CD62p positive events in platelets upon incubation with patients' sera compared to the baseline.
37.5 μl wPLTs/PRP were supplemented with 1 μl of 10 IUs heparin (final concentration 0.2 IUs) or 1 μl of 5000 IUs heparin (final concentration 100 IUs) and 5 μL serum/IgG from HIT patients or control serum/IgG. […] Afterwards, PLTs were resuspended with HBSS to a final volume of 500 μL and immediately assessed via flow cytometry ([FC]), Navios, Beckman-Coulter, Brea, USA).

A further series deals with T1, PF4/heparin complexes (Homo sapiens, UniProt P02776).
T1 construct: purchased Hyphen Biomed, Neuville-sur-Oise, France
T1 sequence (P02776 32-101): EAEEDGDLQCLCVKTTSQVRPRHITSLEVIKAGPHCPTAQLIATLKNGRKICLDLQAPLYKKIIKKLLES
Description: IgG PF4/heparin EIA with sera from VITT patients. In kind it is binding. The settings on record: VITT sera (8/8), in the presence of high concentration of heparin; without: 2.591±0.642; p<0.0001. On the procedure: as §1

“PF4: small cytokine of the CXC chemokine family released from alpha-granules of activated platelets”: in series [1] (result in words), the “change in IgG binding to platelets in the presence of the additive” value is “Only one serum showed increased binding”. Further, the “Median time to aggregate” value in series [2] (VITT sera with washed platelets, 0.2 IU/mL LMWH, 25 μg/mL PF4, mAb IV.3 or 30 mg/mL IVIG, buffer alone 5 min, observation time 45 min) stood at 5 min. For the same substance, the “platelet activation by VITT sera in the presence of the additive” value in series [2] was “only in the presence e of PF4”. In series [3], the “FI CD62p/PS positive PLTs” value is on record as 37.07±23.73 fold increase. For the same substance, the “procoagulant phenotype induced by diluted VITT sera” value in series [3] (diluted sera (from 1:64), result in words) was “only in the presence e of PF4”. For the same substance, the “generation of procoagulant platelets by patient sera in the presence of the additive” value in series [4] is “increase of procoagulant platelets”. Also, the “procoagulant phenotype, sera from HIPA negative patients with PRP” value in series [5] (in presence of PF4, when treated with 0.2 IU/ml Heparin (LMWH)) is reported as “Strong increase”.
Take heparin: the “mean optical density [OD] of IgG antibodies against PF4/heparin complexes” value at PF4/heparin complexes was determined as 0.176±0.073 OD. The “FI of MFI IgG binding to platelets” value in series [1] (heparin at high concentrations (100 IU/ml), without heparin 4.39±1.15, p 0.016) was found to be 1.51±0.66 fold increase. Further, the “FI of MFI of IgG binding to platelets” value in series [1] (heparin at low concentrations (0.2 U/mL), without heparin 4.39±1.15, p 0.688) is reported as 3.60±2.01 fold increase. For the same substance, in series [2], the “platelet activation by VITT sera in the presence of the additive” value is “All reactions were inhibited”. In series [3], the “FI CD62p/PS positive PLTs” value turned out to be 1.92±0.96 fold increase. Also, the “CD62p/PS positive PLTs, mean %±SEM” value in series [4] (HIT sera with wPLTs, supratherapeutic (Hep. 100 IUs) doses of heparin) is 1.18±0.28%. For the same substance, the “CD62p/PS positive PLTs, mean percent [mean %]±SEM” value in series [4] (HIT sera with wPLTs, therapeutic (0.2 IUs) heparin, HC sera 1±0) stood at 44.99±6.26%. The “generation of procoagulant platelets by patient sera in the presence of the additive” value in series [4] is “completely inhibited”. In addition, the “procoagulant PLT formation by HIT IgG fractions” value is “not observed” in series [5] (supratherapeutic (100 IUs) doses of heparin) and “showed the capability to induce procoagulant PLTs” in series [5] (therapeutic doses (0.2 IUs) heparin).
